In patent US8076311B2, “Compositions and methods for modulating the immune system” (priority 2006, dated 2011):
Like-named read-outs stand apart in the source and are kept apart here.

What was measured:
T lymphocyte [1] = experiment: Patient case study: T lymphocyte competence (proliferation in response to PHA); assay type: in vivo, human
Protocol: (§1) The patient was treated with a Formula 2 compound and blood cell parameters were monitored. The sample size for this experiment was 1, consisting of subject 1. Subject 1 is an immune comprised patient with multiple recurrent infectious bouts requiring hospitalization while in a nearly moribund condition began treatment with the experimental drug Isopentyl adenosine (IPA).
(§2) The subject initially received IPA (see FIGS. 1 and 2). T and B lymphocyte competence as measured by the ability of these cells to proliferate in response to specific stimulating mitogens (PHA for T cells and PWM for B cells) which was monitored on a weekly basis until death. As shown in FIGS. 1 and 2 respectively the subject's T and B lymphocyte competence on was well below normal.

B lymphocyte = experiment: Patient case study: B lymphocyte competence (proliferation in response to PWM); assay type: in vivo, human
Protocol: as §1, §2

immune comprised patient = experiment: Patient case study: clinical status; assay type: in vivo, human
Protocol: The patient was treated with a Formula 2 compound and blood cell parameters were monitored. The sample size for this experiment was 1, consisting of subject 1. Subject 1 is an immune comprised patient with multiple recurrent infectious bouts requiring hospitalization while in a nearly moribund condition began treatment with the experimental drug Isopentyl adenosine (IPA). The subject had been hospitalized with avert life-threatening infections. The subject's total white blood cell counts were in the range of 2200-4900 for the three month period preceding hospitalization. […] The patient was hospitalized from depression, exhaustion, bronchial infection, severe diarrhea, severe weight loss and complete loss of appetite and spiked fever. The patient's weight was 98 pounds.

bone marrow cells = conditions: after the 15th day of post-irradiation
Protocol: (§3) Thirty six animals were divided into four groups of nine animals each. […] Group 4 was treated as normal animals without any treatment. On days 5, 10 and 15 after irradiation (750) rads three animals from each group was sacrificed. Blood was collected to heparinized tubes, and plasma was removed and following parameters were assayed in the blood. Activity of the enzyme SOD was measured by NBT reduction method of McCord and Fridovich. CAT activity was estimated by the method of Aebi by measuring the rate of decomposition of hydrogen peroxide at 240 nm. Level of GSH was assayed by the method of Moron et al based on the reaction with DTBN. Assay of GPX followed the method of Hafeman based on the degradation of H2O2 in the presence of GSH. The method of Habig was followed to assay the activity of GST based on the rate of increase in the conjugate formation between GSH and CDNB.
The femurs of three above animals were dissected out and bone marrow cells were flushed into phosphate buffered saline (pH 7.4) containing 2% foetal calf serum. The cells were washed and bone marrow viability was determined by the method of Sredni. The results were expressed as number of live bone marrow cells ×10(6)/femur.

CAT = conditions: continuous administration; maximum on tenth day after irradiation
Protocol: as §3

GPX = conditions: group III; 15th day after irradiation; p<−0.001
Protocol: as §3

GSH = conditions: oltipraz continuously administered group; 15th day; p<0.001
Protocol: as §3

GST = conditions: group III; 15th day; p<−0.01
Protocol: as §3

SOD = conditions: continuous administration; maximum value on the 15th day after irradiation
Protocol: as §3

lipid peroxidation = conditions: group III; day 15; liver; p<−0.001
Protocol: The liver of the sacrificed animals were excised quickly washed in ice-cold saline and kept at −70° C. till the day of analysis. On the day of analysis 25% homogenate was pre-pared in tris-HCl buffer (0.1 M, pH 7.4). The homogenate was centrifuged at 12000 rpm for 30 minutes and supernatant was used to determine the tissue lipid peroxide levels (LPO) using the TBA method of Okhawa et al.

irradiated animals = experiment: Effect of oltipraz on haematological parameters and body weight of irradiated animals; conditions: for Body weight on day 6: 750 rads, p>0.05
T lymphocyte [2] = conditions: patients receiving immune stimulating agents; cited from earlier work
[3] = resumed for one week with one-half the recommended dosage
[4] = within 7 days of drug therapy initiation
[5] = within a month of resuming therapy at recommended dose levels
[6] = first period of constant oral doses of IPA

SMILES: CC(C)=CCNc1ncnc2c1ncn2[C@@H]1O[C@H](CO)[C@@H](O)[C@H]1O [IPA, N6-(Δ2-isopentenyl) adenosine]
- T lymphocyte competence (T lymphocyte [1]; dosage greatly (>3×) increased): depression suggesting immunotoxicity
- T lymphocyte competence (T lymphocyte [1]; [3]): spiked dramatically to above the lower limit of the normal range
- Time to major rapid recovery of T lymphocyte competence after initiation of therapy (T lymphocyte [1]; subject 1, oral IPA): less than 7 days
- Level of T lymphocyte competence (T lymphocyte [1]; [4]): above the lower limits-of the normal donor's reactivity
- T lymphocyte competence (T lymphocyte [1]; [5]): well within the range of normal donor reactivity
- T lymphocyte competence (T lymphocyte [1]; within two weeks of resuming therapy at recommended dose levels): nearly within the normal range
- B lymphocyte activity (B lymphocyte; [3]): slight rise
- Time to major rapid recovery of B lymphocyte competence after initiation of therapy (B lymphocyte; subject 1, oral IPA): less than 7 days
- Level of B lymphocyte competence (B lymphocyte; [4]): above the lower limits-of the normal donor's reactivity
- B lymphocyte competence (B lymphocyte; [5]): somewhat below lower normal limits
- Fever and diarrhea (immune comprised patient; [6]): completely subsided
- Weight gain (immune comprised patient; [6]): 15 pound
- Life after initiation of therapy (immune comprised patient; patient terminally moribund at start): 5 months

SMILES: Cc1c(-c2cnccn2)ssc1=S [oltipraz]
- Bone marrow viability (bone marrow cells; group II (oltipraz pre treated)): 5.82 ×10^6 cells/femur
- Bone marrow viability (bone marrow cells; group III (oltipraz continuously administered)): 14.32 ×10^6 cells/femur
- CAT activity (CAT): enhanced
- GPX activity (GPX): 1927.87±136.06 U/L of haemolysate
- Levels of GSH compared with radiation alone treated group (GSH): increased almost three times
- GST activity (GST): 2.38±0.25 nano-moles of CDNB-GSH conjugate formed
- SOD activity (SOD): enhanced
- Lipid peroxidation (lipid peroxidation): 2.12±0.21 nano-moles of MDA formed/mg of protein
- Body weight on day 6 (irradiated animals; group II: oltipraz 50 mgs/Kg ten days prior to irradiation): 21.02±4.14
- WBC at later days after irradiation (irradiated animals; group III (oltipraz continuously administered) compared with group I (radiation alone) and group II): significantly elevated WBC
- Body weight on day 6 (irradiated animals; group III: oltipraz 50 mgs/Kg ten days prior to and fifteen days after irradiation): 21.10±2.51
- Differential count (irradiated animals; irradiated mice, oltipraz groups): did not show any significant variation
- Total leukocyte count (irradiated animals; oltipraz 50 mgs/Kg, irradiated mice, versus radiation alone): increase the count
- Hemoglobin level (irradiated animals; oltipraz continuously administered group, day 6): 12.42±2.76

SMILES: c1ccc([C@H]2CN3CCSC3=N2)cc1 [Levamisole]
- Immune recovery capacity compared with IPA (T lymphocyte [2]): slower and less dramatic
